Laboratory results: US20160021921A1, “PRETERM INFANT NUTRITIONAL COMPOSITIONS CONTAINING BETA-HYDROXY-BETA-METHYLBUTYRIC ACID” (ABBOTT LABORATORIES, priority 2013, published 2016)
Entries after “also recorded” stand apart in the source; their conditions may differ.

Columns and labels:
Type in all cases: in vivo, neonatal pigs
S6K1 = experiment: Phosphorylation of S6K1 in muscles, immunoblotting; details: one hour
Experimental: (§1) Overnight fasted neonatal pigs (5-7 days old) were infused with HMB at 0, 20, 100, or 400 μmol·kg^−1·hr^−1 HMB. Blood plasma concentrations of the following circulating substrates were measured.
(§2) At the end of the infusion, the piglets were sacrificed and the fractional protein synthesis rates were measured by measuring ^3H incorporation into protein fractions after a flooding dose of L[4-^3H]phenylalanine using the method set forth in Garlick, P. J., “A rapid and convenient technique for measuring the rate of protein synthesis in tissues by injection of [3H]Phenylalanine,” Biochem J (1980), Vol. 192, 719-723. Activation of translation initiation was measured in the stomach, duodenum, jejunum, colon, pancreas, kidney, brain and skin. The abundance of intracellular proteins involved in signaling of protein synthesis and in processes related to protein degradation was measured in tissue homogenates by immunoblotting using commercially available antibodies.

Atrogin-1 = experiment: Expression of Atrogin-1 in muscles, immunoblotting; details: one hour
Experimental: as §1, §2

amino acid transporters = experiment: Level of amino acid transporters in piglet tissues; details: HMB-infused piglets
Experimental: as §2

eEF2 = experiment: Phosphorylation of eEF2 in muscles, immunoblotting; details: one hour
Experimental: as §1, §2

4EBP1 = experiment: Phosphorylation of 4EBP1 in muscles, immunoblotting; details: one hour
Experimental: as §1, §2

elF2α = experiment: Phosphorylation of elF2α in muscles, immunoblotting; details: one hour
Experimental: as §1, §2

[1] = system: protein synthesis in the lung and spleen; experiment: Fractional protein synthesis rate in lung and spleen; details: 20 μmol·kg^−1·hr^−1 HMB for one hour
Experimental: as §1, §2

[2] = system: protein synthesis in skeletal muscles (longissimus dorsi, gastrocnemius, soleus, diaphragm); experiment: Fractional protein synthesis rate in skeletal muscles, L[4-3H]phenylalanine flooding dose
Experimental: as §1, §2

e1F4E•e1F4G complex = experiment: Formation of the active e1F4E•e1F4G complex in muscles (FIG. 11); details: one hour
Experimental: as §1, §2

LC3-II/LC3-I = experiment: Ratio of LC3-II/LC3-I in muscles (autophagy/lysosomal protein degradation); details: one hour
Experimental: as §1, §2

MURF1 = experiment: Expression of MURF1 in muscles, immunoblotting; details: one hour
Experimental: as §1, §2

[3] = 20 μmol·kg^−1·hr^−1 HMB, diaphragm
[4] = 20 μmol·kg^−1·hr^−1 HMB, longissimus dorsi, gastrocnemius, soleus
[5] = 100 μmol·kg^−1·hr^−1 HMB, diaphragm
[6] = 100 μmol·kg^−1·hr^−1 HMB, longissimus dorsi, gastrocnemius, soleus

CC(C)(O)CC(=O)O [HMB, beta-hydroxy-beta-methylbutyric acid]
phosphorylation of S6K1 (S6K1; [3]): increased
phosphorylation of S6K1 (S6K1; [4]): increased
phosphorylation of S6K1 (S6K1; [5]): not
phosphorylation of S6K1 (S6K1; [6]): increased
expression of Atrogin-1 (Atrogin-1; 20 μmol·kg^−1·hr^−1 HMB): did not affect
expression of Atrogin-1 (Atrogin-1; 100 μmol·kg^−1·hr^−1 HMB): did not affect
level of amino acid transporters (amino acid transporters): did not affect
phosphorylation of eEF2 (eEF2; 20 μmol·kg^−1·hr^−1 HMB): did not affect
phosphorylation of eEF2 (eEF2; 100 μmol·kg^−1·hr^−1 HMB): did not affect
phosphorylation of 4EBP1 (4EBP1; [3]): increased
phosphorylation of 4EBP1 (4EBP1; [4]): increased
phosphorylation of 4EBP1 (4EBP1; [5]): not
phosphorylation of 4EBP1 (4EBP1; [6]): increased
phosphorylation of elF2a (elF2α; 20 μmol·kg^−1·hr^−1 HMB): did not affect
phosphorylation of elF2a (elF2α; 100 μmol·kg^−1·hr^−1 HMB): did not affect
fractional rate of protein synthesis in lung and spleen [1]: increased
fractional rate of protein synthesis ([2]; 20 μmol·kg^−1·hr^−1 HMB, longissimus dorsi, gastrocnemius, soleus, diaphragm, P<0.05): increased; also recorded: greatest impact
fractional rate of protein synthesis ([2]; 100 μmol·kg^−1·hr^−1 HMB, gastrocnemius, soleus, diaphragm): not significantly
fractional rate of protein synthesis ([2]; 100 μmol·kg^−1·hr^−1 HMB, longissimus dorsi muscle, P<0.05): increased
fractional rate of protein synthesis ([2]; 400 μmol·kg^−1·hr^−1 HMB, skeletal muscles): no significant effect; also recorded: least impact
effectiveness in increasing protein synthesis compared with leucine ([2]; HMB 20, 100 or 400 vs leucine 400 μmol·kg^−1·hr^−1, longissimus dorsi, gastrocnemius, soleus, diaphragm, duodenum, brain): equal to or more effective; also recorded: as effective as leucine
formation of active eIF4E•eIF4G complex (e1F4E•e1F4G complex; [3]): increased
formation of active eIF4E•eIF4G complex (e1F4E•e1F4G complex; [4]): increased
formation of active eIF4E•eIF4G complex (e1F4E•e1F4G complex; [5]): not
formation of active eIF4E•eIF4G complex (e1F4E•e1F4G complex; [6]): increased
ratio of LC3-II/LC3-I (LC3-II/LC3-I; 20 μmol·kg^−1·hr^−1 HMB): did not affect
ratio of LC3-II/LC3-I (LC3-II/LC3-I; 100 μmol·kg^−1·hr^−1 HMB): did not affect
expression of MURF1 (MURF1; 20 μmol·kg^−1·hr^−1 HMB): did not affect
expression of MURF1 (MURF1; 100 μmol·kg^−1·hr^−1 HMB): did not affect
